Measured values published in patent US9914730B2, “Azaquinazoline inhibitors of Atypical protein Kinase C” (Ignyta, Inc., priority 2012, dated 2018).

What follows are molecules tested against T1, full-length human PKCι (Homo sapiens, UniProt P41743) (assay: PKCι IC50 IMAP assay, full-length PKCι at 150 μM ATP). Settings: read-out: IC50 in IMAP assay against full length PKCi at 150 μM ATP.
T1 construct: Recombinant, full-length human PKCι expressed in Sf21 insect cells is also commercially available; purchased; host or cells: Sf21 insect cells
T1 sequence (P41743 1-596): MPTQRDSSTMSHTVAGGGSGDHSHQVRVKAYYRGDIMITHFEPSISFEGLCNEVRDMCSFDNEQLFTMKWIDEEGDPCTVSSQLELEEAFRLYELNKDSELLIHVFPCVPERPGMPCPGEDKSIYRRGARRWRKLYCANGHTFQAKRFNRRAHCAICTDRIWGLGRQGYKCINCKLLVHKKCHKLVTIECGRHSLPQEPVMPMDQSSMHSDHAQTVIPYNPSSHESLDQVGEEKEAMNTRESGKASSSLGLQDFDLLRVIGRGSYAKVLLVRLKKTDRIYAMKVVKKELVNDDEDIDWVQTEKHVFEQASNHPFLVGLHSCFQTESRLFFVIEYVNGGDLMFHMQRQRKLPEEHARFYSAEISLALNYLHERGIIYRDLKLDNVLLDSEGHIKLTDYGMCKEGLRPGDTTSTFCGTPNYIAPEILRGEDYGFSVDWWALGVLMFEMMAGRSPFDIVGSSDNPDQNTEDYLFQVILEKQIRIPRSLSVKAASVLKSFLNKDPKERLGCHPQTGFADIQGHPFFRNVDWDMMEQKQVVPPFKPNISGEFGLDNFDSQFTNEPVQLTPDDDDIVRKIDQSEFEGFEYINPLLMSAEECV
Type: biochemical
How it was run: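 IMAP fluorescence polarisation (ex 485/em 530 nm) read-out; % inhibition set from no-compound (0%) and no-enzyme (100%) controls, IC50 from dose-response curve fit. Sf21-expressed full-length enzyme ~15 pM, 100 nM FAM peptide, ATP 150 μM (5× KM^APP), 60 min at RT.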

IC50 [nM] | SMILES
100 to 1000 | COc1cc(N2CCOCC2)ccc1Nc1cc(-c2nc(N3CCNCC3)c3c(OC)cncc3n2)ccn1 [Example 359, (2-Methoxy-4-morpholin-4-yl-phenyl)-[4-(5-methoxy-4-piperazin-1-yl-pyrido[3,4-d]pyrimidin-2-yl)-pyridin-2-yl]-amine]
100 to 1000 | COc1cc(N2CCOCC2)ccc1Nc1cc(-c2nc(N[C@@H]3CCNC3)c3c(OC)cncc3n2)ccn1 [Example 360, {5-Methoxy-2-[2-(2-methoxy-4-morpholin-4-yl-phenylamino)-pyridin-4-yl]-pyrido[3,4-d]pyrimidin-4-yl}-(R)-pyrrolidin-3-yl-amine]
< 100 | COc1cncc2nc(-c3ccnc(Nc4ccc(C5CCOCC5)cc4)c3)nc(N[C@@H]3CCNC3)c12 [Example 361, (5-Methoxy-2-{2-[4-(tetrahydro-pyran-4-yl)-phenylamino]-pyridin-4-yl}-pyrido[3,4-d]pyrimidin-4-yl)-(R)-pyrrolidin-3-yl-amine]
< 100 | COc1cncc2nc(-c3ccnc(Nc4ccc(C5CCOCC5)cc4)c3)nc(N3CCNCC3)c12 [Example 362, [4-(5-Methoxy-4-piperazin-1-yl-pyrido[3,4-d]pyrimidin-2-yl)-pyridin-2-yl]-[4-(tetrahydro-pyran-4-yl)-phenyl]-amine]
< 100 | COc1cncc2nc(-c3ccnc(Nc4cc(C)ccn4)c3)nc(N3CCNCC3)c12 [Example 363, [4-(5-Methoxy-4-piperazin-1-yl-pyrido[3,4-d]pyrimidin-2-yl)-pyridin-2-yl]-(4-methyl-pyridin-2-yl)-amine]
< 100 | COc1cncc2nc(-c3ccnc(Nc4ccc(C)cn4)c3)nc(N3CCNCC3)c12 [Example 364, [4-(5-Methoxy-4-piperazin-1-yl-pyrido[3,4-d]pyrimidin-2-yl)-pyridin-2-yl]-(5-methyl-pyridin-2-yl)-amine]
< 100 | COc1cncc2nc(-c3ccnc(Nc4cc(Cl)ccn4)c3)nc(N3CCNCC3)c12 [Example 365, (4-Chloro-pyridin-2-yl)-[4-(5-methoxy-4-piperazin-1-yl-pyrido[3,4-d]pyrimidin-2-yl)-pyridin-2-yl]-amine]
< 100 | COc1cncc2nc(-c3ccnc(Nc4ccc(Cl)cn4)c3)nc(N3CCNCC3)c12 [Example 366, (5-Chloro-pyridin-2-yl)-[4-(5-methoxy-4-piperazin-1-yl-pyrido[3,4-d]pyrimidin-2-yl)-pyridin-2-yl]-amine]
< 100 | COc1cncc2nc(-c3ccnc(Nc4cc(C(F)(F)F)ccn4)c3)nc(N3CCNCC3)c12 [Example 367, [4-(5-Methoxy-4-piperazin-1-yl-pyrido[3,4-d]pyrimidin-2-yl)-pyridin-2-yl]-(4-trifluoromethyl-pyridin-2-yl)-amine]
< 100 | COc1cncc2nc(-c3ccnc(Nc4ccc(C(F)(F)F)cn4)c3)nc(N3CCNCC3)c12 [Example 368, [4-(5-Methoxy-4-piperazin-1-yl-pyrido[3,4-d]pyrimidin-2-yl)-pyridin-2-yl]-(5-trifluoromethyl-pyridin-2-yl)-amine]
< 100 | COc1cncc2nc(-c3ccnc(NC(=O)Cc4ccc(Cl)cc4)c3)nc(N3CCNCC3)c12 [Example 369, 2-(4-Chloro-phenyl)-N-[4-(5-methoxy-4-piperazin-1-yl-pyrido[3,4-d]pyrimidin-2-yl)-pyridin-2-yl]-acetamide]
< 100 | COc1cncc2nc(-c3ccnc(NC(=O)Cc4cccc(Cl)c4)c3)nc(N3CCNCC3)c12 [Example 370, 2-(3-Chloro-phenyl)-N-[4-(5-methoxy-4-piperazin-1-yl-pyrido[3,4-d]pyrimidin-2-yl)-pyridin-2-yl]-acetamide]
< 100 | COc1cncc2nc(-c3ccnc(NC(=O)Cc4ccccc4)c3)nc(N3CCNCC3)c12 [Example 371, N-[4-(5-Methoxy-4-piperazin-1-yl-pyrido[3,4-d]pyrimidin-2-yl)-pyridin-2-yl]-2-phenyl-acetamide]
< 100 | COc1cccc(CC(=O)Nc2cc(-c3nc(N4CCNCC4)c4c(OC)cncc4n3)ccn2)c1 [Example 372, 2-(3-Methoxy-phenyl)-N-[4-(5-methoxy-4-piperazin-1-yl-pyrido[3,4-d]pyrimidin-2-yl)-pyridin-2-yl]-acetamide]
< 100 | COc1cncc2nc(-c3ccnc(NC(=O)Cc4cccc(C(F)(F)F)c4)c3)nc(N3CCNCC3)c12 [Example 373, N-[4-(5-Methoxy-4-piperazin-1-yl-pyrido[3,4-d]pyrimidin-2-yl)-pyridin-2-yl]-2-(3-trifluoromethyl-phenyl)-acetamide]
< 100 | COc1ccc(CC(=O)Nc2cc(-c3nc(N4CCNCC4)c4c(OC)cncc4n3)ccn2)cc1 [Example 374, 2-(4-Methoxy-phenyl)-N-[4-(5-methoxy-4-piperazin-1-yl-pyrido[3,4-d]pyrimidin-2-yl)-pyridin-2-yl]-acetamide]

IC50 [nM] | SMILES
< 100 | COc1cncc2nc(-c3ccnc(Nc4ccc(N5CCOCC5)nc4)c3)nc(N3CCNCC3)c12 [Example 375, [4-(5-Methoxy-4-piperazin-1-yl-pyrido[3,4-d]pyrimidin-2-yl)-pyridin-2-yl]-(6-morpholin-4-yl-pyridin-3-yl)-amine]
100 to 1000 | c1cncc(Nc2cc(-c3nc(N[C@@H]4CCNC4)c4ccncc4n3)ccn2)c1 [Example 376, {2-[2-(Pyridin-3-ylamino)-pyridin-4-yl]-pyrido[3,4-d]pyrimidin-4-yl}-(R)-pyrrolidin-3-yl-amine]
100 to 1000 | COc1cncc2nc(-c3ccnc(Nc4cccnc4)c3)nc(N[C@@H]3CCNC3)c12 [Example 377, {5-Methoxy-2-[2-(pyridin-3-ylamino)-pyridin-4-yl]-pyrido[3,4-d]pyrimidin-4-yl}-(R)-pyrrolidin-3-yl-amine]
< 100 | COc1cncc2nc(-c3ccnc(Nc4cccnc4)c3)nc(N3CCNCC3)c12 [Example 378, [4-(5-Methoxy-4-piperazin-1-yl-pyrido[3,4-d]pyrimidin-2-yl)-pyridin-2-yl]-pyridin-3-yl-amine]
< 100 | COc1cncc2nc(-c3ccnc(Nc4cc(C(N)=O)ccn4)c3)nc(N3CCNCC3)c12 [Example 379, 2-[4-(5-Methoxy-4-piperazin-1-yl-pyrido[3,4-d]pyrimidin-2-yl)-pyridin-2-ylamino]-isonicotinamide]
< 100 | COc1cncc2nc(-c3ccnc(Nc4ccc(C(N)=O)cn4)c3)nc(N3CCNCC3)c12 [Example 380, 6-[4-(5-Methoxy-4-piperazin-1-yl-pyrido[3,4-d]pyrimidin-2-yl)-pyridin-2-ylamino]-nicotinamide]
< 100 | COc1cc(Nc2cc(-c3nc(N4CCNCC4)c4c(OC)cncc4n3)ccn2)ccc1N1CCOCC1 [Example 382, (3-Methoxy-4-morpholin-4-yl-phenyl)-[4-(5-methoxy-4-piperazin-1-yl-pyrido[3,4-d]pyrimidin-2-yl)-pyridin-2-yl]-amine]
< 100 | COc1cncc2nc(-c3ccnc(Nc4ccc(N5CCOCC5)cc4C)c3)nc(N3CCNCC3)c12 [Example 383, [4-(5-Methoxy-4-piperazin-1-yl-pyrido[3,4-d]pyrimidin-2-yl)-pyridin-2-yl]-(2-methyl-4-morpholin-4-yl-phenyl)-amine]
100 to 1000 | COc1cncc2nc(-c3ccnc(Nc4ccc(C#N)nc4)c3)nc(N3CCNCC3)c12 [Example 384]
100 to 1000 | COc1cncc2nc(-c3ccnc(Nc4cncnc4)c3)nc(N[C@@H]3CCNC3)c12 [Example 385, {5-Methoxy-2-[2-(pyrimidin-5-ylamino)-pyridin-4-yl]-pyrido[3,4-d]pyrimidin-4-yl}-(R)-pyrrolidin-3-yl-amine]
100 to 1000 | COc1cncc2nc(-c3ccnc(Nc4cncnc4)c3)nc(N3CCNCC3)c12 [Example 386, [4-(5-Methoxy-4-piperazin-1-yl-pyrido[3,4-d]pyrimidin-2-yl)-pyridin-2-yl]-pyrimidin-5-yl-amine]
< 100 | COc1cncc2nc(-c3ccnc(Nc4ccccn4)c3)nc(N3CCNCC3)c12 [Example 387, [4-(5-Methoxy-4-piperazin-1-yl-pyrido[3,4-d]pyrimidin-2-yl)-pyridin-2-yl]-pyridin-2-yl-amine]
10000 to 40000 | COc1cncc2nc(-c3ccnc(Nc4cc(C#N)ccn4)c3)nc(N3CCOCC3)c12 [Example 388, 2-[4-(5-Methoxy-4-morpholin-4-yl-pyrido[3,4-d]pyrimidin-2-yl)-pyridin-2-ylamino]-isonicotinonitrile]
100 to 1000 | COc1cncc2nc(-c3ccnc(NC(=O)Cc4cccc(C#N)c4)c3)nc(N3CCOCC3)c12 [Example 389, 2-(3-Cyano-phenyl)-N-[4-(5-methoxy-4-morpholin-4-yl-pyrido[3,4-d]pyrimidin-2-yl)-pyridin-2-yl]-acetamide]
100 to 1000 | COc1cc(Nc2cc(-c3nc(N4CCNCC4)c4c(OC)cncc4n3)ccn2)cc(OC)c1OC [Example 390, [4-(5-Methoxy-4-piperazin-1-yl-pyrido[3,4-d]pyrimidin-2-yl)-pyridin-2-yl]-(3,4,5-trimethoxy-phenyl)-amine]
